Ends that are not written are not given here. Peptide text beside a SMILES is read from it. * marks the point of attachment. Cbz = O=C(OCc1ccccc1)*
Legend:
[1] = system: MEROS-GFP in INS-1 832/13 cells; experiment: Confocal microscopy of MEROS-GFP fluorescence; type: cell-based, rat; conditions: 2 mM DTT, FIG. 11
Protocol: FIG. 11 is a set of four confocal microscopy images of MEROS-GFP gathered using a 476-nm excitation wavelength (bottom two panels) or a 405-nm excitation wavelength (top two panels) in INS-1 832/13 cells treated with (right two panels) or without (left two panels) 2 mM DTT.

[2] = system: MEROS-GFP (ER redox state) in NSC34 cells; experiment: Time course of MEROS-GFP ratio in NSC34 cells; type: cell-based; conditions: 1 mM DTT for 10 minutes, then wash, FIG. 14
Protocol: FIG. 14 is a graph showing a time course of the MEROS-GFP ratio in NSC34 cells that are treated with 1 mM DTT for 10 minutes, and then washed. The MEROS-GFP ratio was calculated at each minute interval between one minute prior to treatment to four minutes after the wash. The bottom line represents the fluorescence observed with excitation at 473 nm, the black line represents the MEROS-GFP ratio, and the light grey line represents the fluorescence with excitation at 394 nm (n=3; S.D.).
The MEROS-GFP ratio was also monitored in DTT-treated cells at different time points.

[3] = system: MEROS-GFP (ER redox state) in INS-1 832/13 cells; experiment: MEROS-GFP pilot screen of 1280-compound library and follow-up screens; type: cell-based, rat; conditions: 0.2 mM DTT challenge for 2 hours, 96-well plates; untreated 0.037
Protocol: A pilot screen of a 1280-compound library (MicroSource), a collection of 1,040 U.S. drugs and 240 international drugs (FIG. 39) was performed. In this experiment, INS-1 832/13 cells stably-expressing MEROS-GFP were seeded (20,000 cells/well) in black optical 96-well plates. After 24 hours, 2 μL of each compound was added using the TeMo liquid handling robot. After another 24 hours, cells were challenged with 0.2 mM DTT, a strong reducing agent, for 2 hours, and then the MEROS-GFP ratio was calculated.

[4] = system: MEROS-GFP in INS-1 832/13 cells; experiment: Non-reducing SDS-PAGE of AMS-modified MEROS-GFP; type: cell-based, rat; conditions: 2 mM DTT, FIG. 13
Protocol: FIG. 13 is photograph of non-reducing polyacrylamide gel electrophoresis (PAGE) of 4-acetamido-4′-maleimidylstilbene-2, 2′-disulfonic acid (AMS)-modified MEROS-GFP in lysate from cells left untreated (left lane) or treated with 2 mM DTT (right lane). The lysates were either left untreated (−βME) (top) or were treated with β-mercaptoethanol (+βME) (bottom) prior to electrophoresis.
Additional experiments were performed to confirm that the MEROS-GFP ratio reflected changes in its redox state in vivo. In these experiments, the redox state of MEROS-GFP was monitored using non-reducing SDS-PAGE in combination with the thiol-alkylating reagent, 4-acetamido-4′-maleimidylstilbene-2, 2′-disulfonic acid (AMS). In these experiments, INS-1 832/13 cells left untreated or treated with 2 mM DTT, were lysed with 1× SDS-PAGE sample buffer containing 25 mM AMS with or without 2-β-mercaptoethanol, boiled at 95° C. for 10 minutes, electrophoresed using SDS-PAGE, and immunoblotted using an anti-GFP antibody.

[5] = system: MEROS-GFP (ER redox state) in INS-1 832/13 cells; experiment: MEROS-GFP ratio by fluorescent plate reader in INS-1 832/13 cells; type: cell-based, rat; conditions: 30 minutes; H2O2 0.1 or 1 mM, DTT 0.1-10 mM, FIG. 12
Protocol: FIG. 12 is a graph of the MEROS-GFP ratio in INS-1 832/13 cells left untreated (no label), or treated with H2O2 (1 or 0.1 mM H2O2) or DTT (0.1, 0.2, 0.5, 1, 2, 5, or 10 mM DTT). The MEROS-GFP ratio was determined using a plate reader. The data shown are mean±S.D. (n=3).
The ratio between fluorescence from excitation 473 nm versus 394 nm normalized to wild-type untreated cells is called the MEROS-GFP ratio. The MEROS-GFP ratio was determined using a fluorescent plate reader. In these experiments, the INS-1 832/13 cells were plated onto a 96-well plate at 50,000 cells/well, the cells treated with H2O2 or DTT at various concentrations for 30 minutes, and the fluorescence at excitation wavelength 473 nm and emission wavelength 510 nm (for reduced MEROS-GFP) or at excitation wavelength 394 nm and emission wavelength 510 nm (for oxidized MEROS-GFP) was measured. The MEROS-GFP ratio was determined after substraction of background signal.

[6] = system: MEROS-GFP (ER redox state) in INS-1 832/13 cells; experiment: MEROS-GFP ratio by flow cytometry in INS-1 832/13 cells; type: cell-based, rat; conditions: for Median MEROS-GFP ratio (FACS): normalized to untreated, DTT 0.2-10 mM, 1 mM H2O2 30 min, TM 5 μM, TG 10 nM 24 h or 1 μM 4 h, BreA 100 ng/mL, MG132, palmitate 0.2-0.5 mM, hIAPP 10 μM, 24 h, FIGS. 17-24
Protocol: FIG. 15 is fluorescence-assisted cell sorting (FACS) data of INS-1 832/13 cells stably-transfected with MEROS-GFP following no treatment or treatment with DTT (0.2, 0.5, or 10 mM DTT). The data was collected using excitation wavelengths of 488 nm and 405 nm, and an emission spectrum of 510 nm.
FIG. 16 is a histogram of FACS data of INS-1 832/13 cells stably-transfected with MEROS-GFP following no treatment or treatment with DTT (0.2 mM, 0.5 mM, or 10 mM DTT). The horizontal axis represents the MEROS-GFP ratio and the vertical axis represents the number of cells.
FIG. 17 is a graph of the median MEROS-GFP ratio in INS-1 832/13 cells stably-transfected with MEROS-GFP following no treatment or treatment with DTT (0.2, 0.5, or 10 mM DTT). The MEROS-GFP values shown are normalized to the untreated values.
FIG. 18 is two graphs showing data from FACS analysis of INS-1 832/13 cells stably-transfected with MEROS-GFP following no treatment or treatment with 1 mM H2O2 for 30 minutes. The right graph is a histogram of the MEROS-GFP ratio in INS-1 832/13 cells not treated or treated with 1 mM H202.
FIG. 19 is a graph of the median MEROS-GFP ratio calculated in INS-1 832/13 cells using FACS analysis following no treatment or treatment with tunicamycin (TM) (5 μM; 24 hours), thapsigargin (TG) (10 nM; 24 hours), TG (1 μM; 4 hours), brefeldin A (BreA) (100 ng/mL; 24 hours), or MG132 ([…]; 24 hours). […] The data are normalized to the median MEROS-GFP ratio calculated for the untreated cells.
The error bars represent ±S.D. The data are normalized to the median MEROS-GFP ratio calculated for the untreated cells.
FIG. 24 is a graph of the median MEROS-GFP ratio in INS-1 832/13 cells left untreated or treatment with human islet amyloid polypeptide (IAPP) (10 μM; 24 hours), mouse IAPP (10 μM; 24 hours), or cytokines ([…] (5 ng/mL), INFγ (100 ng/mL), and TNFα (25 ng/mL); 24 hours)). The error bars represent ±S.D. The data are normalized to the median MEROS-GFP ratio calculated for the untreated cells.
Flow cytometry was used to precisely monitor the MEROS-GFP ratio in vivo.
Experiments were performed to study the relationship between the UPR and the heterogeneity of the redox state. In these experiments, both the redox state and the activation levels of the UPR were monitored in the same cells. To achieve this, a UPR reporter gene encoding the red fluorescent protein, mCherry, driven by the human BiP promoter was constructed. […] This BiP-mCherry reporter plasmid was transfected into INS-1 832/13 cells expressing MEROS-GFP, and FACS analysis was used to monitor the MEROS-GFP ratio and the activation levels of the UPR via BiP-mCherry in the same cells (FIG. 31). The activation levels of BiP-mCherry and the MEROS-GFP ratio were monitored following the induction of ER stress. In these experiments, INS-1 832/13 cells expressing MEROS-GFP were plated onto 6-well plates, treated with each compound for indicated times, and then harvested by trypsinization. After washing with phosphate buffered saline, cells were resuspended in the 11 mM glucose-Hanks buffered salt solution. Flow cytometry analyses were performed with LSRII (BD).

INS-1 832/13 cells = experiment: Percentage of reduced cells (MEROS-GFP ratio >2) by flow cytometry after fatty acids; type: cell-based, rat; conditions: 0.5 mM palmitate plus 0.5 mM oleic or linoleic acid, 24 hours, FIG. 30
Description: The y-axis represents fluorescence following excitation using 488 nm and the x-axis represents fluorescence following excitation using 405 nm.
The data for cells treated with palmitate is shifted to the right.
The error bars indicate ±standard deviation (**p<0.01).

MANF [7] = experiment: MANF mRNA and soluble MANF protein in human primary islets treated with thapsigargin; type: cell-based; conditions: thapsigargin 0.25 μM, 24 hours
Protocol: The data shown were generated using quantitative real-time PCR (n=3; S.D.).
In this experiment, human MANF was immunoprecipitated using a rabbit anti-human MANF antibody (Proteintech), and the same antibody was used to develop the immunoblot.
(§1) Experiments were performed to determine if expression of soluble MANF is induced in pancreatic β-cells in response to endoplasmic reticulum stress. These experiments were performed using rodent pancreatic β-cell lines (INS-1 832/13 and MIN6), primary mouse and human islets, and two different chemical agents that induce endoplasmic reticulum stress (thapsigargin and tunicamycin). INS-1 832/13 cells were cultured in RPMI-1640 containing 10% fetal bovine serum, penicillin, streptomycin, sodium pyruvate, and 0.1% β-mercaptoethanol. Primary islets were obtained from Prodo, and plated into 6-well plates precoated with laminin V produced by 804G cells, and cultured in CMRL medium supplemented with fetal bovine serum, non-essential amino acids, sodium pyruvate, and antibiotics.
(§2) A second set of experiments were performed using human primary islets from two human donors.

MANF [8] = experiment: MANF protein (immunoblot) and mRNA (real-time PCR) in INS-1 832/13 cells treated with ER stress inducers; type: cell-based, rat; conditions: 24 hours; for MANF mRNA levels: 5 μM tunicamycin or 20 nM thapsigargin, FIG. 2
Protocol: FIG. 1 is an immunoblot showing the levels of MANF protein in concentrated medium from a culture of a rat pancreatic β-cell line (INS-1 832/13) or in lysate from the rat pancreatic β-cell line (INS-1 832/13) after no treatment or treatment with thapsigargin (50 nM) or tunicamycin (0.5 μg/mL) for 24 hours.
FIG. 2 is a graph showing the relative expression of MANF mRNA in a rat pancreatic β-cell line (INS-1 832/13) cultured under the following conditions: 11 mM glucose (24 hours); 25 mM glucose (24 hours); 25 mM glucose (48 hours); 25 mM glucose (72 hours); 11 mM glucose and 5 μM tunicamycin (TM) (24 hours); or 11 mM glucose and 20 nM thapsigargin (Tg) (24 hours). The data shown were generated using quantitative real-time PCR (n=3, S.D.).
as §1

MANF [9] = experiment: MANF mRNA in mouse primary islets treated with thapsigargin (real-time PCR); type: cell-based; conditions: 0.5 μM thapsigargin, 6 hours, FIG. 3
Protocol: FIG. 3 is a graph showing the relative expression of MANF, WFS1, TXNIP, and CHOP mRNA in mouse primary islets cultured five days with 5 mM glucose (LG), 11 mM glucose (MG), or 25 mM glucose (HG), or five days with 5 mM glucose (LG) and 6 hours with 0.5 μM thapsigargin (TG). The data shown were generated using quantitative real-time PCR (n=3; S.D.).
as §1, §2

O[C@H](CS)[C@H](O)CS (racemic) [DTT, dithiothreitol]
MEROS-GFP fluorescence from 476 nm excitation [1]: significantly increased | Time to reduction of the ER (MEROS-GFP ratio) [2]: ER could be reduced within a few minutes | Average MEROS-GFP ratio in the pilot screen [3]: 0.069 (S.D. =0.006) | Redox state of MEROS-GFP (AMS, non-reducing SDS-PAGE) [4]: fully reduced MEROS-GFP in vivo | MEROS-GFP ratio (plate reader) [5]: increased the MEROS-GFP ratio in a dose-dependent manner | Ratio of fluorescence from excitation at 488 nm versus 405 nm (FACS) ([6]; DTT 0.2, 0.5, 10 mM, FIGS. 15 and 16): dose dependent increase | Median MEROS-GFP ratio (FACS) [6]: increased the median MEROS-GFP ratio in a dose-dependent manner

OO [H2O2]
MEROS-GFP ratio (plate reader) [5]: did not change the MEROS-GFP ratio | Median MEROS-GFP ratio (FACS) [6]: did not change the MEROS-GFP ratio

CC(C)C[C@@H](C=O)NC(=O)[C@H](CC(C)C)NC(=O)[C@H](CC(C)C)NC(=O)OCc1ccccc1 [MG 132] (Cbz-Leu-Leu-Leu-aldehyde)
Median MEROS-GFP ratio (FACS) [6]: increased

C[C@H]1CCC/C=C/[C@@H]2C[C@H](O)C[C@H]2[C@H](O)/C=C/C(=O)O1 [brefeldin A]
Median MEROS-GFP ratio (FACS) [6]: increased

CCCCC/C=C\C/C=C\CCCCCCCC(=O)O [linoleic acid]
Palmitate-induced reduced ER (percentage of reduced cells) (INS-1 832/13 cells): significantly suppressed the ability of palmitate to create a reduced ER

CCCCCCCC/C=C\CCCCCCCC(=O)O [oleic acid]
Palmitate-induced reduced ER (percentage of reduced cells) (INS-1 832/13 cells): significantly suppressed the ability of palmitate to create a reduced ER

C/C=C(/C)C(=O)O[C@H]1C(C)=C2[C@H]([C@@H]1OC(=O)CCCCCCC)[C@@](C)(OC(C)=O)C[C@H](OC(=O)CCC)[C@@]1(O)[C@H]2OC(=O)[C@@]1(C)O [thapsigargin]
Soluble MANF protein in the extracellular medium (MANF [7]; FIGS. 5 and 6): production and release of soluble MANF protein into the extracellular medium | MANF mRNA expression (MANF [7]; two donors, FIG. 4): significant increase in MANF mRNA expression | MANF mRNA levels (MANF [8]): Elevated levels of MANF mRNA | Soluble MANF protein in the medium (MANF [8]; thapsigargin 50 nM, FIG. 1): detected in the medium | MANF mRNA expression (MANF [9]): significant increase in MANF mRNA expression | Median MEROS-GFP ratio (FACS) [6]: increased

human islet amyloid polypeptide (hIAPP): human islet amyloid polypeptide, physiological inducer of ER stress (KCNTATCATQRLANFLVHSSNNFGAILSSTNVGSNTY; not fully specified (C-terminus, bridges); cysteine pairing not given here; UniProt P10997 34-70, looked up)
Median MEROS-GFP ratio (FACS) [6]: increased

tunicamycin
MANF mRNA levels (MANF [8]): Elevated levels of MANF mRNA | Median MEROS-GFP ratio (FACS) [6]: increased
